For test [1], the system named is IL-4 stimulated expression of CD23 in human Ramos B cells (JAK-1 and JAK-3). Kind of test: Assay for Ramos B-Cell Line Stimulated with IL-4 (CD23 upregulation, FACS). Format: cell-based. As to conditions: read-out: IC50, Example 41. The method, boiled down: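 Human Ramos B cells in RPMI with 5% serum were pre-incubated with compound or DMSO for 1 h at 37 °C, then stimulated with IL-4 at a final 50 units/mL for 20-24 h. CD23 upregulation was measured by anti-CD23-PE staining and flow cytometry, and IC50 values were calculated.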

The next test concerns Primary human T-cells. Kind of test: Primary Human T-Cell Proliferation Assay Stimulated with IL-2 (CellTiter-Glo). Format: cell-based. As to conditions: read-out: IC50, Example 42. The method, boiled down:
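IC50 derived from CellTiter-Glo ATP signal after 72 hours of IL-2-driven proliferation at 37° C. Cells: primary human T-cells from blood, stimulated beforehand 3-4 days on anti-CD3/anti-CD28 with IL-2, then rested from IL-2 before compound exposure in duplicate; IL-2-free wells served as unstimulated control.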

Setting [2] is: Homo sapiens, Ramos, Ramos B-cell line stimulated with IL-4, CD23 expression by FACS.
Where [3] appears, read: Homo sapiens, T-cell, primary human T-cell proliferation stimulated with IL-2.
The mark [4] stands for this setting: Ramos B cells stimulated with IL-4, CD23 expression by FACS.
The mark [5] stands for this setting: primary human T-cells stimulated with IL-2, proliferation.
[6] abbreviates: Homo sapiens, Ramos, Ramos B cells stimulated with IL-4, CD23 expression by FACS.
[7] abbreviates: Homo sapiens, T-cell, primary human T-cells stimulated with IL-2, proliferation.

Structures can show the parent of a compound that is named as a salt. Where two headings read alike, the source gives them in different places.

This note sets out measurements from patent US11827628B2, “Compositions and methods for inhibition of the JAK pathway” (Rigel Pharmaceuticals, Inc., priority 2005, dated 2023).

On to `NC(=O)OCCc1ccc(Nc2nc(Nc3cccc(S(N)(=O)=O)c3)ncc2F)cc1` [III-54, N4-{4-[2-(Aminocarbonyloxy)ethyl]phenyl}-N2-(3-aminosulfonylphenyl)-5-fluoro-2,4-pyrimidinediamine], for which the IC50 is 135 nM in test [1] (setting [2]) and 140 nM with Primary human T-cells (setting [3]).

For the molecule `CN(C)C(=O)OCCc1ccc(Nc2nc(Nc3cccc(S(N)(=O)=O)c3)ncc2F)cc1` [III-57, N2-(3-Aminosulfonylphenyl)-N4-{4-[2-(dimethylaminocarbonyloxy)ethyl]phenyl}-5-fluoro-2,4-pyrimidinediamine], the IC50 in test [1] (setting [2]) is 53.6 nM; in the test on Primary human T-cells (setting [3]), 170 nM.

Turning to `CNC(=O)OCCc1ccc(Nc2nc(Nc3cccc(S(N)(=O)=O)c3)ncc2F)cc1` [III-60, N2-(3-Aminosulfonylphenyl)-5-fluoro-N4-{4-[2-(methylaminocarbonyloxy)ethyl]phenyl}-2,4-pyrimidinediamine], the values for the concentration for half-maximal inhibition (IC50) (in test [1] (setting [2]); with Primary human T-cells (setting [3])) were 135 nM and 178 nM, respectively.

As for `COc1ccc(Nc2ncc(F)c(Nc3ccc(Cc4ccncc4)cc3)n2)cc1S(N)(=O)=O` [III-66, N2-(3-Aminosulfonyl-4-methoxyphenyl)-5-fluoro-N4-[4-(4-pyridinylmethyl)phenyl]-2,4-pyrimidinediamine], the half-inhibitory concentration (IC50) in test [1] (setting [2]) came out at 142 nM; with Primary human T-cells (setting [3]) it was 1150 nM.

In the case of `NS(=O)(=O)c1ccc(Nc2ncc(F)c(Nc3ccc(Cc4ccncc4)cc3)n2)cc1` [III-71, N2-(4-Aminosulfonylphenyl)-5-fluoro-N4-[4-(4-pyridinylmethyl)phenyl]-2,4-pyrimidinediamine], the IC50 in test [1] (setting [2]) was 97.9 nM; with Primary human T-cells (setting [3]), 368 nM.

As to `Cc1ccc(Nc2ncc(F)c(Nc3ccc(Cc4ccncc4)cc3)n2)cc1S(N)(=O)=O` [III-74, N2-(3-Aminosulfonyl-4-methylphenyl)-5-fluoro-N4-[4-(4-pyridinylmethyl)phenyl]-2,4-pyrimidinediamine], the half-maximal inhibitory concentration (IC50) in test [1] (setting [2]) is 95.2 nM; in the test on Primary human T-cells (setting [3]), 175 nM.

Regarding `NS(=O)(=O)c1cccc(Nc2ncc(F)c(NCCc3ccc(-c4ccncc4)cc3)n2)c1` [III-76, N2-(3-Aminosulfonylphenyl)-5-fluoro-N4-[4-(4-pyridinyl)phenethyl]-2,4-pyrimidinediamine], the IC50 was 104 nM in test [1] (setting [2]) and 135 nM in the test with Primary human T-cells (setting [3]).

Turning to `Cc1ccc(Nc2ncc(F)c(NCCc3ccc(-c4ccncc4)cc3)n2)cc1S(N)(=O)=O` [III-77, N2-(3-Aminosulfonyl-4-methylphenyl)-5-fluoro-N4-[4-(4-pyridinyl)phenethyl]-2,4-pyrimidinediamine], the IC50 in test [1] (setting [2]) is 177 nM; in the test with Primary human T-cells (setting [3]), 210 nM.

`NS(=O)(=O)c1cccc(Nc2ncc(F)c(NCCc3ccc(-n4ccnc4)cc3)n2)c1` [III-87, N2-(3-Aminosulfonylphenyl)-5-fluoro-N4-[4-(1-imidazolyl)phenethyl]-2,4-pyrimidinediamine]: the IC50 was 141 nM in test [1] (setting [2]) and 142 nM with Primary human T-cells (setting [3]).

For the molecule `Cc1ccc(Nc2ncc(F)c(NCCc3ccc(-n4ccnc4)cc3)n2)cc1S(N)(=O)=O` [III-88, N2-(3-Aminosulfonyl-4-methylphenyl)-5-fluoro-N4-[4-(1-imidazolyl)phenethyl]-2,4-pyrimidinediamine], the IC50 worked out at 141 nM in test [1] (setting [2]) and 166 nM in the test with Primary human T-cells (setting [3]).

Turning to `NS(=O)(=O)c1cccc(Nc2ncc(F)c(Nc3ccc(Cn4cncn4)cc3)n2)c1` [III-100, N2-(3-Aminosulfonylphenyl)-5-fluoro-N4-{4-[1-(1,2,4-thazolyl)methyl]phenyl}-2,4-pyrimidinediamine], the IC50 is 162 nM in test [1] (setting [4]) and 197 nM in the test with Primary human T-cells (setting [5]).

As to `NS(=O)(=O)c1cccc(Nc2ncc(F)c(Nc3ccc(CN4CCOCC4)cc3)n2)c1` [III-103, N2-(3-Aminosulfonylphenyl)-5-fluoro-N4-(4-N-morpholinomethylenephenyl)-2,4-pyrimidinediamine], the concentration for half-maximal inhibition (IC50) in test [1] (setting [4]) turned out to be 230 nM; in the test on Primary human T-cells (setting [5]), 1060 nM.

On to `Cc1ccc(Nc2ncc(F)c(Nc3ccc(CN4CCOCC4)cc3)n2)cc1S(N)(=O)=O` [III-104, N2-(3-Aminosulfonyl-4-methylphenyl)-5-fluoro-N4-(4-N-morpholinomethylenephenyl)-2,4-pyrimidinediamine], for which the results for the IC50 (in test [1] (setting [4]); in the test with Primary human T-cells (setting [5])) were 242 nM and 1190 nM, respectively.

`Cc1noc(CCc2ccc(Nc3nc(Nc4cccc(S(N)(=O)=O)c4)ncc3F)cc2)n1` [III-106, N2-(3-Aminosulfonylphenyl)-5-fluoro-N4-[4-(3-methyl-1,2,4-oxadiazol-5-yl)ethylenephenyl]-2,4-pyrimidinediamine]: the figures for the IC50 (in test [1] (setting [4]); with Primary human T-cells (setting [5])) were 42.8 nM and 75.1 nM, respectively.

Take `COc1ccc(Nc2ncc(F)c(Nc3ccc(CN4CCSCC4)cc3)n2)cc1S(N)(=O)=O` [III-109, N2-(3-Aminosulfonyl-4-methyoxyphenyl)-5-fluoro-N4-(4-thiomorpholinomethylenephenyl)-2,4-pyrimidinediamine]: the half-maximal inhibitory concentration (IC50) was determined as 143 nM in test [1] (setting [4]) and 252 nM in the test on Primary human T-cells (setting [5]).

For the molecule `NS(=O)(=O)c1cccc(Nc2ncc(F)c(Nc3ccc(CN4CCS(=O)(=O)CC4)cc3)n2)c1` [III-110, N2-(3-Aminosulfonylphenyl)-5-fluoro-N4-{4-[(1,1-dioxothiomorpholin-4-yl-)methyl]phenyl}-2,4-pyrimidinediamine], the half-inhibitory concentration (IC50) in test [1] (setting [4]) was 247 nM; with Primary human T-cells (setting [5]), 998 nM.

Turning to `Cc1ccc(Nc2ncc(F)c(Nc3ccc(CN4CCS(=O)(=O)CC4)cc3)n2)cc1S(N)(=O)=O` [III-111, N2-(3-Aminosulfonyl-4-methylphenyl)-5-fluoro-N4-{4-[(1,1-dioxothiomorpholin-4-yl-)methyl]phenyl}-2,4-pyrimidinediamine], the values for the IC50 (in test [1] (setting [4]); with Primary human T-cells (setting [5])) were 321 nM and 926 nM, respectively.

With `NS(=O)(=O)c1cccc(Nc2ncc(F)c(Nc3ccc(Cc4ccncc4)cc3)n2)c1` [III-129, N2-(3-Aminosulfonylphenyl)-5-fluoro-N4-[4-(4-pyridylmethyl)phenyl]-2,4-pyrimidinediamine Methanesulfonic Acid Salt], the half-inhibitory concentration (IC50) stood at 174 nM in test [1] (setting [4]) and 180 nM in the test with Primary human T-cells (setting [5]).

Consider `CNS(=O)(=O)c1cc(Nc2ncc(F)c(Nc3cccc(-c4cnco4)c3)n2)ccc1C` [IV-4, 5-Fluoro-N2-[3-(N-methylaminosulfony)-4-methylphenyl]-N4-[3-(1,3-oxazol-5-yl)phenyl]-2,4-pyrimidinediamine], for which the 50% inhibitory concentration (IC50) in test [1] (setting [4]) was determined as 151 nM; with Primary human T-cells (setting [5]), 303 nM.

As to `CNS(=O)(=O)c1cc(Nc2ncc(F)c(Nc3ccc(-c4cnco4)cc3)n2)ccc1C` [IV-7, 5-Fluoro-N2-[3-(N-methylaminosulfony)-4-methylphenyl]-N4-[4-(1,3-oxazol-5-yl)phenyl]-2,4-pyrimidinediamine], the figures for the 50% inhibitory concentration (IC50) (in test [1] (setting [4]); in the test on Primary human T-cells (setting [5])) were 112 nM and 203 nM, respectively.

On to `Cc1cc(Nc2nc(Nc3ccc(S(N)(=O)=O)cc3)ncc2F)cc(C)c1N1CCN(C)CC1` [IX-44, N2-(4-Aminosulfonylphenyl)-N4-[3,5-dimethyl-4-(4-methylpiperazin-1-yl]phenyl)-5-fluoro-2,4-pyrimidinediamine], for which the half-maximal inhibitory concentration (IC50) came out at 223 nM in test [1] (setting [6]) and 789 nM with Primary human T-cells (setting [7]).

In the case of `COC(=O)c1ccc(Nc2nc(Nc3ccc(F)c(S(N)(=O)=O)c3)ncc2F)s1` [IX-48, N2-(3-Aminosulfonyl-4-fluorophenyl)-5-fluoro-N4-(5-methoxycarbonyl-thiophene-2-yl)-2,4-pyrimidinediamine], the IC50 in test [1] (setting [6]) stood at 258 nM; in the test with Primary human T-cells (setting [7]), 2620 nM.

Consider `COc1ccc(Nc2nc(Nc3cccc(S(=O)(=O)NN4CCC(C)CC4)c3)ncc2F)cc1Cl` [VI-9, N4-(3-Chloro-4-methoxyphenyl)-5-fluoro-N2-[3-(4-methylpipendin-1-yl)aminosulfonylphenyl]-2,4-pyrimidinediamine], for which the figures for the half-inhibitory concentration (IC50) (in test [1] (setting [4]); in the test with Primary human T-cells (setting [5])) were 53.3 nM and 945 nM, respectively.

“N4-(3,4-Dichlorophenyl)-5-fluoro-N2-[3-(4-methylpipendin-1-yl)aminosulfonylphenyl]-2,4-pyrimidinediamine [VI-10]”: the IC50 in test [1] (setting [4]) worked out at 220 nM; in the test on Primary human T-cells (setting [5]) it was 2400 nM.
